Data as given in patent publication US10588317B2, “Isoxazoline-substituted benzamides and analogues as insecticides” (priority 2015, dated 2020).

What was measured:
Assay type in all cases: in vivo
Plutella xylostella = Plutella xylostella (diamond back moth), artificial diet; details: 120 h, application rate 200 ppm, L2 larvae, 5 days after infestation, read-out: effect in at least one of the two categories (mortality or growth inhibition)
Outline: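 L2 larvae (10-15 per well) fed on compound-treated, dried artificial diet; test solutions diluted in water from 10'000 ppm DMSO stocks. Readout 5 days post-infestation as mortality or growth inhibition versus untreated diet, with at least 80% effect at 200 ppm as threshold.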

Tetranychus urticae = Tetranychus urticae (two-spotted spider mite): feeding/contact activity; details: 192 h, application rate 200 ppm, mixed population (mobile stages), 8 days after infestation, read-out: mortality
Description: Bean leaf discs on agar in 24-well microtiter plates were sprayed with aqueous test solutions prepared from 10'000 ppm DMSO stock solutions. After drying the leaf discs were infested with a mite population of mixed ages. The samples were assessed for mortality on mixed population (mobile stages) 8 days after infestation.

Thrips tabaci = Thrips tabaci (onion thrips): feeding/contact activity; details: 144 h, application rate 200 ppm, Thrips population of mixed ages, 6 days after infestation, read-out: mortality
Description: Sunflower leaf discs were placed on agar in 24-well microtiter plates and sprayed with aqueous test solutions prepared from 10'000 ppm DMSO stock solutions. After drying the leaf discs were infested with a Thrips population of mixed ages. The samples were assessed for mortality 6 days after infestation.

Spodoptera littoralis [1] = assay: Spodoptera littoralis (Egyptian cotton leaf worm), uptake by lettuce roots from agar; details: 144 h, read-out: effect in at least one of the three categories (mortality, anti-feeding, or growth inhibition)
Outline: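 Systemic test: Spodoptera eggs placed on lettuce leaves from seedlings raised 7 days on agar containing the compound (diluted from 10'000 ppm DMSO stock). Six days after infestation, larvae scored against untreated controls for mortality, feeding deterrence and growth inhibition.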

Spodoptera littoralis [2] = assay: Spodoptera littoralis (Egyptian cotton leaf worm), sprayed cotton leaf discs; details: foliar, 72 h, application rate 200 ppm, L1 larvae, 3 days after infestation, read-out: control (mortality, anti-feeding effect, growth inhibition)
Outline: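 Five first-instar larvae placed on dried cotton leaf discs (on agar) previously sprayed with aqueous dilutions of 10'000 ppm DMSO stocks. Scored at 3 days against untreated discs for mortality, feeding inhibition and growth inhibition; any category above untreated counts as control.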

Myzus persicae = Myzus persicae (green peach aphid): feeding/contact activity; details: 144 h, application rate 200 ppm, aphid population of mixed ages, 6 days after infestation, read-out: mortality
Description: Sunflower leaf discs were placed onto agar in a 24-well microtiter plate and sprayed with aqueous test solutions prepared from 10'000 ppm DMSO stock solutions. After drying, the leaf discs were infested with an aphid population of mixed ages. The samples were assessed for mortality 6 days after infestation.

Euschistus heros = Euschistus heros (neotropical brown stink bug), sprayed soybean leaves; details: 120 h, application rate 200 ppm, N2 nymphs, 5 days after infestation, read-out: effect in at least one of the two categories (mortality or growth inhibition)
Outline: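 Scored 5 days post-infestation versus untreated controls, for both mortality and growth inhibition: N2 nymphs placed on agar-mounted soybean leaves previously sprayed at 200 ppm with aqueous test solutions from DMSO stocks and left to dry.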

Diabrotica balteata = Diabrotica balteata (corn root worm), sprayed maize sprouts; details: 96 h, application rate 200 ppm, L2 larvae, 4 days after infestation, read-out: effect in at least one of the two categories (mortality or growth inhibition)
Outline: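 Read-out at 4 days post-infestation: mortality and growth inhibition relative to untreated samples. Test solutions (200 ppm, from DMSO stocks) were sprayed onto agar-held maize sprouts, which after drying received 6–10 L2 larvae per well.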

Cc1cc(C2=NO[C@@](c3cc(Cl)c(F)c(Cl)c3)(C(F)(F)F)C2)ccc1C(=O)NC1CON(S(=O)(=O)N(C)C#N)C1 (stereo partly drawn) [Compound A81, N-[2-[cyano(methyl)sulfamoyl]isoxazolidin-4-yl]-4-[(5S)-5-(3,5-dichloro-4-fluoro-phenyl)-5-(trifluoromethyl)-4H-isoxazol-3-yl]-2-methyl-benzamide]
≥ 80%: percent effect (mortality or growth inhibition) at 200 ppm (Plutella xylostella) | mortality at 200 ppm (Tetranychus urticae) | mortality at 200 ppm (Thrips tabaci) | percent control (mortality, anti-feedant effect or growth inhibition) at 12.5 ppm (Spodoptera littoralis [1]) | mortality at 200 ppm (Spodoptera littoralis [2]) | mortality at 200 ppm (Myzus persicae) | percent effect (mortality or growth inhibition) at 200 ppm (Euschistus heros) | percent effect (mortality or growth inhibition) at 200 ppm (Diabrotica balteata)

Cc1cc(C2=NO[C@@](c3cc(Cl)c(F)c(Cl)c3)(C(F)(F)F)C2)ccc1C(=O)NC1CON(S(=O)(=O)N(C)C)C1 (some centres unmarked) [Compound A10]
≥ 80%: percent effect (mortality or growth inhibition) at 200 ppm (Plutella xylostella) | mortality at 200 ppm (Tetranychus urticae) | mortality at 200 ppm (Thrips tabaci) | percent control (mortality, anti-feedant effect or growth inhibition) at 12.5 ppm (Spodoptera littoralis [1]) | mortality at 200 ppm (Spodoptera littoralis [2]) | mortality at 200 ppm (Myzus persicae) | percent effect (mortality or growth inhibition) at 200 ppm (Euschistus heros) | percent effect (mortality or growth inhibition) at 200 ppm (Diabrotica balteata)

CCN(CC)S(=O)(=O)N1CC(NC(=O)c2ccc(C3=NO[C@@](c4cc(Cl)c(F)c(Cl)c4)(C(F)(F)F)C3)cc2C)CO1 (stereo partly drawn) [Compound A98, 4-[(5S)-5-(3,5-dichloro-4-fluoro-phenyl)-5-(trifluoromethyl)-4H-isoxazol-3-yl]-N-[2-(diethylsulfamoyl)isoxazolidin-4-yl]-2-methyl-benzamide]
≥ 80%: percent effect (mortality or growth inhibition) at 200 ppm (Plutella xylostella) | mortality at 200 ppm (Tetranychus urticae) | mortality at 200 ppm (Thrips tabaci) | percent control (mortality, anti-feedant effect or growth inhibition) at 12.5 ppm (Spodoptera littoralis [1]) | mortality at 200 ppm (Spodoptera littoralis [2]) | mortality at 200 ppm (Myzus persicae) | percent effect (mortality or growth inhibition) at 200 ppm (Euschistus heros) | percent effect (mortality or growth inhibition) at 200 ppm (Diabrotica balteata)

CCN(C)S(=O)(=O)N1C[C@@H](NC(=O)c2ccc(C3=NO[C@@](c4cc(Cl)c(Cl)c(Cl)c4)(C(F)(F)F)C3)cc2C)CO1 [Compound A72, N-[(4R)-2-[ethyl(methyl)sulfamoyl]isoxazolidin-4-yl]-2-methyl-4-[(5S)-5-(3,4,5-trichlorophenyl)-5-(trifluoromethyl)-4H-isoxazol-3-yl]benzamide]
≥ 80%: percent effect (mortality or growth inhibition) at 200 ppm (Plutella xylostella) | mortality at 200 ppm (Tetranychus urticae) | mortality at 200 ppm (Thrips tabaci) | percent control (mortality, anti-feedant effect or growth inhibition) at 12.5 ppm (Spodoptera littoralis [1]) | mortality at 200 ppm (Spodoptera littoralis [2]) | mortality at 200 ppm (Myzus persicae) | percent effect (mortality or growth inhibition) at 200 ppm (Euschistus heros) | percent effect (mortality or growth inhibition) at 200 ppm (Diabrotica balteata)

CS(=O)(=O)N1C[C@@H](NC(=O)c2ccc(C3=NO[C@@](c4cc(Cl)c(F)c(Cl)c4)(C(F)(F)F)C3)cc2Cl)CO1 [Compound A144, 2-chloro-4-[(5S)-5-(3,5-dichloro-4-fluoro-phenyl)-5-(trifluoromethyl)-4H-isoxazol-3-yl]-N-[(4R)-2-methylsulfonylisoxazolidin-4-yl]benzamide]
≥ 80%: percent effect (mortality or growth inhibition) at 200 ppm (Plutella xylostella) | mortality at 200 ppm (Tetranychus urticae) | mortality at 200 ppm (Thrips tabaci) | percent control (mortality, anti-feedant effect or growth inhibition) at 12.5 ppm (Spodoptera littoralis [1]) | mortality at 200 ppm (Spodoptera littoralis [2]) | mortality at 200 ppm (Myzus persicae) | percent effect (mortality or growth inhibition) at 200 ppm (Euschistus heros) | percent effect (mortality or growth inhibition) at 200 ppm (Diabrotica balteata)

Cc1cc(C2=NO[C@@](c3cccc(C(F)(F)F)c3)(C(F)(F)F)C2)ccc1C(=O)N[C@H]1CON(S(=O)(=O)N(C)C)C1 [Compound A111]
≥ 80%: percent effect (mortality or growth inhibition) at 200 ppm (Plutella xylostella) | mortality at 200 ppm (Tetranychus urticae) | mortality at 200 ppm (Thrips tabaci) | percent effect (mortality, anti-feeding or growth inhibition) at 12.5 ppm (Spodoptera littoralis [1]; test rate 12.5 ppm, eggs, 6 days after infestation) | mortality at 200 ppm (Spodoptera littoralis [2]) | mortality at 200 ppm (Myzus persicae) | percent effect (mortality or growth inhibition) at 200 ppm (Euschistus heros) | percent effect (mortality or growth inhibition) at 200 ppm (Diabrotica balteata)

Cc1cc(C2=NO[C@@](c3cc(Cl)cc(Cl)c3)(C(F)(F)F)C2)ccc1C(=O)N[C@H]1CON(S(=O)(=O)NC2CC2)C1 [Compound A155]
≥ 80%: percent effect (mortality or growth inhibition) at 200 ppm (Plutella xylostella) | mortality at 200 ppm (Tetranychus urticae) | mortality at 200 ppm (Thrips tabaci) | percent control (mortality, anti-feedant effect or growth inhibition) at 12.5 ppm (Spodoptera littoralis [1]) | mortality at 200 ppm (Spodoptera littoralis [2]) | mortality at 200 ppm (Myzus persicae) | percent effect (mortality or growth inhibition) at 200 ppm (Euschistus heros) | percent effect (mortality or growth inhibition) at 200 ppm (Diabrotica balteata)

CCN(C)S(=O)(=O)N1C[C@@H](NC(=O)c2ccc(C3=NO[C@@](c4cc(Cl)cc(Cl)c4)(C(F)(F)F)C3)cc2C)CO1 [Compound A142]
≥ 80%: percent effect (mortality or growth inhibition) at 200 ppm (Plutella xylostella) | mortality at 200 ppm (Tetranychus urticae) | mortality at 200 ppm (Thrips tabaci) | percent control (mortality, anti-feedant effect or growth inhibition) at 12.5 ppm (Spodoptera littoralis [1]) | mortality at 200 ppm (Spodoptera littoralis [2]) | mortality at 200 ppm (Myzus persicae) | percent effect (mortality or growth inhibition) at 200 ppm (Euschistus heros) | percent effect (mortality or growth inhibition) at 200 ppm (Diabrotica balteata)

Cc1cc(C2=NO[C@@](c3cc(Cl)c(Cl)c(Cl)c3)(C(F)(F)F)C2)ccc1C(=O)N[C@H]1CON(S(C)(=O)=O)C1 [Compound A36]
≥ 80%: percent effect (mortality or growth inhibition) at 200 ppm (Plutella xylostella) | mortality at 200 ppm (Tetranychus urticae) | mortality at 200 ppm (Thrips tabaci) | percent control (mortality, anti-feedant effect or growth inhibition) at 12.5 ppm (Spodoptera littoralis [1]) | mortality at 200 ppm (Spodoptera littoralis [2]) | mortality at 200 ppm (Myzus persicae) | percent effect (mortality or growth inhibition) at 200 ppm (Euschistus heros) | percent effect (mortality or growth inhibition) at 200 ppm (Diabrotica balteata)

Cc1cc(C2=NO[C@@](c3cc(Cl)cc(C(F)(F)F)c3)(C(F)(F)F)C2)ccc1C(=O)N[C@H]1CON(S(C)(=O)=O)C1 [Compound A75]
≥ 80%: percent effect (mortality or growth inhibition) at 200 ppm (Plutella xylostella) | mortality at 200 ppm (Tetranychus urticae) | mortality at 200 ppm (Thrips tabaci) | percent control (mortality, anti-feedant effect or growth inhibition) at 12.5 ppm (Spodoptera littoralis [1]) | mortality at 200 ppm (Spodoptera littoralis [2]) | mortality at 200 ppm (Myzus persicae) | percent effect (mortality or growth inhibition) at 200 ppm (Euschistus heros) | percent effect (mortality or growth inhibition) at 200 ppm (Diabrotica balteata)

Cc1cc(C2=NOC(c3cc(C(F)(F)F)cc(C(F)(F)F)c3)(C(F)(F)F)C2)ccc1C(=O)NC1CON(S(C)(=O)=O)C1 (centres unmarked) [Compound A59]
≥ 80%: percent effect (mortality or growth inhibition) at 200 ppm (Plutella xylostella) | mortality at 200 ppm (Tetranychus urticae) | mortality at 200 ppm (Thrips tabaci) | percent control (mortality, anti-feedant effect or growth inhibition) at 12.5 ppm (Spodoptera littoralis [1]) | mortality at 200 ppm (Spodoptera littoralis [2]) | mortality at 200 ppm (Myzus persicae) | percent effect (mortality or growth inhibition) at 200 ppm (Euschistus heros) | percent effect (mortality or growth inhibition) at 200 ppm (Diabrotica balteata)

CCN(C)S(=O)(=O)N1C[C@@H](NC(=O)c2ccc(C3=NO[C@@](c4cc(Cl)cc(C(F)(F)F)c4)(C(F)(F)F)C3)cc2Cl)CO1 [Compound A130, 2-chloro-4-[(5S)-5-[3-chloro-5-(trifluoromethyl)phenyl]-5-(trifluoromethyl)-4H-isoxazol-3-yl]-N-[(4R)-2-[ethyl(methyl)sulfamoyl]isoxazolidin-4-yl]benzamide]
≥ 80%: percent effect (mortality or growth inhibition) at 200 ppm (Plutella xylostella) | mortality at 200 ppm (Tetranychus urticae) | mortality at 200 ppm (Thrips tabaci) | percent control (mortality, anti-feedant effect or growth inhibition) at 12.5 ppm (Spodoptera littoralis [1]) | mortality at 200 ppm (Spodoptera littoralis [2]) | mortality at 200 ppm (Myzus persicae) | percent effect (mortality or growth inhibition) at 200 ppm (Euschistus heros) | percent effect (mortality or growth inhibition) at 200 ppm (Diabrotica balteata)

CN(C)S(=O)(=O)N1C[C@@H](NC(=O)c2ccc(C3=NO[C@@](c4cc(Cl)c(Cl)c(Cl)c4)(C(F)(F)F)C3)cc2Cl)CO1 [Compound A109, 2-chloro-N-[(4R)-2-(dimethylsulfamoyl)isoxazolidin-4-yl]-4-[(5S)-5-(3,4,5-trichlorophenyl)-5-(trifluoromethyl)-4H-isoxazol-3-yl]benzamide]
≥ 80%: percent effect (mortality or growth inhibition) at 200 ppm (Plutella xylostella) | mortality at 200 ppm (Tetranychus urticae) | mortality at 200 ppm (Thrips tabaci) | percent control (mortality, anti-feedant effect or growth inhibition) at 12.5 ppm (Spodoptera littoralis [1]) | mortality at 200 ppm (Spodoptera littoralis [2]) | mortality at 200 ppm (Myzus persicae) | percent effect (mortality or growth inhibition) at 200 ppm (Euschistus heros) | percent effect (mortality or growth inhibition) at 200 ppm (Diabrotica balteata)
